Measured values reported in patent publication US20230373989A1, “N-PHENYLAMINOCARBONYL PYRIDINO-, PYRIMIDINO AND BENZO-TROPANES AS MODULATORS OF GPR65” (PATHIOS THERAPEUTICS LIMITED, priority 2020, published 2023).

Target: T1, human recombinant GPR65 (Homo sapiens, UniProt Q8IYL9)
T1 construct: host or cells: 1321N1 human astrocytoma cells (1321N1-hrGPR65)
Assay: Human GPR65 cAMP HTRF antagonist assay
Assay type: cell-based
Settings: not given
In short: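 1321N1 astrocytoma cells stably expressing GPR65 were preincubated with compound for 30 min at room temperature in KRH pH 7.6 with 1 mM IBMX and 200 μM EDTA. They were then stimulated at assay pH 7.2 for 30 min, with controls at pH 7.9. cAMP was read by HTRF (665/620 nm), normalised to controls and fitted by 4-parameter logistic to give IC50.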

T1 sequence (Q8IYL9 whole entry): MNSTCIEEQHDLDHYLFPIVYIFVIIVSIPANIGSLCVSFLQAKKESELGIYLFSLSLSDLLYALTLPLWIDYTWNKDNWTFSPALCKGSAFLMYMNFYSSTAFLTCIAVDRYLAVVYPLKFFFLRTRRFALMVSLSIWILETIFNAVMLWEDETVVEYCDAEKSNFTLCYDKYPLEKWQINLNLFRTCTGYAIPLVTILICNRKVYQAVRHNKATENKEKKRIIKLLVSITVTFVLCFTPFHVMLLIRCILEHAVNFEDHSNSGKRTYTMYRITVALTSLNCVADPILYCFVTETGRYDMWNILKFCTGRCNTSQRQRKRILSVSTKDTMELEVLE

**Q.** Which IC50 does the source give for O=C(Nc1ccc(Cl)c(Cl)c1)N1C2CCC1c1cnc(F)cc1C2 (racemic) [Compound 67, (±)-N-(3,4-Dichlorophenyl)-3-fluoro-6,7,8,9-tetrahydro-5H-6,9-epiminocyclohepta[c]pyridine-10-carboxamide] here?
**A.** Its IC50 is 500 to 5000 nM.

**Q.** With O=C(Nc1ccc(Cl)c(Cl)c1)N1C2CCC1c1c[nH]c(=O)cc1C2 (racemic) [Compound 76, (±)-N-(3,4-Dichlorophenyl)-3-oxo-3,5,6,7,8,9-hexahydro-2H-6,9-epiminocyclohepta[c]pyridine-10-carboxamide] as the compound, how does the IC50 read?
**A.** The IC50 was under 500 nM.

**Q.** With C=CC(=O)Nc1ccc(NC(=O)N2[C@H]3CC[C@@H]2c2ccnc(F)c2C3)cc1Cl [Compound 179, (5R,8S)-N-(4-Acrylamido-3-chlorophenyl)-1-fluoro-6,7,8,9-tetrahydro-5H-5,8-epiminocyclohepta[c]pyridine-10-carboxamide] as the compound, how does the IC50 read?
**A.** The IC50 was 500 to 5000 nM.

**Q.** How did the IC50 turn out when O=C(Nc1cc(Cl)c(Cl)cc1O)N1[C@H]2CC[C@@H]1c1ccnc(F)c1C2 [Compound 149, (5R,8S)—N-(4,5-Dichloro-2-hydroxyphenyl)-1-fluoro-6,7,8,9-tetrahydro-5H-5,8-epiminocyclohepta[c]pyridine-10-carboxamide] was run?
**A.** The IC50 was under 500 nM.

**Q.** With O=C(Nc1cccc(Br)c1)N1C2CCC1c1ccnc(F)c1C2 (racemic) [Compound 170, (±)-N-(3-Bromophenyl)-1-fluoro-6,7,8,9-tetrahydro-5H-5,8-epiminocyclohepta[c]pyridine-10-carboxamide] as the compound, how does the IC50 read?
**A.** Its IC50 is under 500 nM.

**Q.** With O=C(Nc1ccc(Cl)c(Cl)c1)N1C2CCC1c1ccc(Cl)cc1C2 (racemic) [Compound 60, (±)-2-Chloro-N-(3,4-dichlorophenyl)-6,7,8,9-tetrahydro-5H-5,8-epiminobenzo[7]annulene-10-carboxamide] as the compound, how does the IC50 read?
**A.** The IC50 was under 500 nM.

**Q.** O=C(Nc1ccc(OC(F)(F)F)c(Cl)c1)N1[C@H]2CC[C@@H]1c1ccnc(F)c1C2 [Compound 124, (5R,8S)-N-(3-Chloro-4-(trifluoromethoxy)phenyl)-1-fluoro-6,7,8,9-tetrahydro-5H-5,8-epiminocyclohepta[c]pyridine-10-carboxamide] was tested. Which IC50 did it give?
**A.** Its IC50 is under 500 nM.

**Q.** For O=C(Nc1ccc(OC(F)F)c(Cl)c1)N1[C@H]2CC[C@@H]1c1c[nH]c(=O)cc1C2 [Compound 127, (6S,9R)-N-(3-Chloro-4-(difluoromethoxy)phenyl)-3-oxo-3,5,6,7,8,9-hexahydro-2H-6,9-epiminocyclohepta[c]pyridine-10-carboxamide], which IC50 is on record?
**A.** Its IC50 is under 500 nM.

**Q.** Which IC50 does the source give for O=C(Nc1cc(Cl)ccc1F)N1C2CCC1c1ccnc(F)c1C2 (racemic) [Compound 174, (±)-N-(5-Chloro-2-fluorophenyl)-1-fluoro-6,7,8,9-tetrahydro-5H-5,8-epiminocyclohepta[c]pyridine-10-carboxamide] here?
**A.** The IC50 was under 500 nM.

**Q.** With O=C(Nc1cc(Cl)c(C(F)(F)F)cc1F)N1C2CCC1c1ccc(=O)[nH]c1C2 (racemic) [Compound 189, (±)-N-(5-Chloro-2-fluoro-4-(trifluoromethyl)phenyl)-2-oxo-2,5,6,7,8,9-hexahydro-1H-5,8-epiminocyclohepta[b]pyridine-10-carboxamide] as the compound, how does the IC50 read?
**A.** The IC50 was under 500 nM.

**Q.** O=C(Nc1cc(Cl)cc(C(F)(F)F)c1)N1C2CCC1c1ccnc(F)c1C2 (racemic) [Compound 164, (±)-N-(3-Chloro-5-(trifluoromethyl)phenyl)-1-fluoro-6,7,8,9-tetrahydro-5H-5,8-epiminocyclohepta[c]pyridine-10-carboxamide] was tested. Which IC50 did it give?
**A.** The IC50 was under 500 nM.

Same assay, conditions: 1321N1-hrGPR65 cells, assay pH 7.2, cAMP HTRF; read-out: hGPR65 IC50 (activity class)

**Q.** For O=C(Nc1ccc(Cl)c(Cl)c1)N1[C@@H]2CC[C@H]1c1c[nH]c(=O)nc1C2 [Compound 105, (5S,8R)-N-(3,4-Dichlorophenyl)-2-oxo-3,5,6,7,8,9-hexahydro-2H-5,8-epiminocyclohepta[d]pyrimidine-10-carboxamide], which IC50 is on record?
**A.** Its IC50 is over 5000 nM.

**Q.** With O=C(Nc1cc(C(F)(F)F)cc(C(F)(F)F)c1)N1C2CCC1c1ccnc(F)c1C2 (racemic) [Compound 159, (±)-N-(3,5-Bis(trifluoromethyl)phenyl)-1-fluoro-6,7,8,9-tetrahydro-5H-5,8-epiminocyclohepta[c]pyridine-10-carboxamide] as the compound, how does the IC50 read?
**A.** The IC50 was 500 to 5000 nM.

**Q.** Which IC50 does the source give for O=C(Nc1ccc(C(F)(F)F)c(Cl)c1)N1[C@@H]2CC[C@H]1c1c[nH]c(=O)nc1C2 [Compound 44, (5S,8R)-N-(3-Chloro-4-(trifluoromethyl)phenyl)-2-oxo-3,5,6,7,8,9-hexahydro-2H-5,8-epiminocyclohepta[d]pyrimidine-10-carboxamide] here?
**A.** The IC50 was over 5000 nM.

**Q.** How did the IC50 turn out when COc1ccc(NC(=O)N2C3CCC2c2cncnc2C3)cc1Cl (racemic) [Compound 8, (±)-N-(3-Chloro-4-methoxyphenyl)-6,7,8,9-tetrahydro-5H-5,8-epiminocyclohepta[d]pyrimidine-10-carboxamide] was run?
**A.** Its IC50 is over 5000 nM.

**Q.** COc1cc(NC(=O)N2C3CCC2c2ccnc(F)c2C3)ccc1-c1cnco1 (racemic) [Compound 152, (±)-1-Fluoro-N-(3-methoxy-4-(oxazol-5-yl)phenyl)-6,7,8,9-tetrahydro-5H-5,8-epiminocyclohepta[c]pyridine-10-carboxamide] was tested. Which IC50 did it give?
**A.** The IC50 was 500 to 5000 nM.

**Q.** N#Cc1ccc(NC(=O)N2C3CCC2c2cncnc2C3)cc1Br (racemic) [Compound 13, (±)-N-(3-Bromo-4-cyanophenyl)-6,7,8,9-tetrahydro-5H-5,8-epiminocyclohepta[d]pyrimidine-10-carboxamide] was tested. Which IC50 did it give?
**A.** Its IC50 is over 5000 nM.

**Q.** How did the IC50 turn out when O=C(Nc1ccc(Cl)c(Br)c1)N1C2CCC1c1cncnc1C2 (racemic) [Compound 12, (±)-N-(3-Bromo-4-chlorophenyl)-6,7,8,9-tetrahydro-5H-5,8-epiminocyclohepta[d]pyrimidine-10-carboxamide] was run?
**A.** The IC50 was 500 to 5000 nM.

**Q.** How did the IC50 turn out when N#Cc1ccc(NC(=O)N2C3CCC2c2cncnc2C3)cc1Cl (racemic) [Compound 11, (±)-N-(3-chloro-4-cyanophenyl)-6,7,8,9-tetrahydro-5H-5,8-epiminocyclohepta[d]pyrimidine-10-carboxamide] was run?
**A.** Its IC50 is 500 to 5000 nM.

**Q.** How did the IC50 turn out when O=C(Nc1ccc(Cl)c(Cl)c1)N1C2CCC1c1cnc(C(F)(F)F)nc1C2 (racemic) [Compound 24, (±)-N-(3,4-Dichlorophenyl)-2-(trifluoromethyl)-6,7,8,9-tetrahydro-5H-5,8-epiminocyclohepta[d]pyrimidine-10-carboxamide] was run?
**A.** The IC50 was over 5000 nM.

**Q.** How did the IC50 turn out when O=C(Nc1cc(Cl)ccc1F)N1C2CCC1c1cncnc1C2 (racemic) [Compound 51, (±)-N-(5-Chloro-2-fluorophenyl)-6,7,8,9-tetrahydro-5H-5,8-epiminocyclohepta[d]pyrimidine-10-carboxamide] was run?
**A.** Its IC50 is 500 to 5000 nM.

**Q.** With N#Cc1cc(NC(=O)N2C3CCC2c2ccnc(F)c2C3)ccc1F (racemic) [Compound 165, (±)-N-(3-Cyano-4-fluorophenyl)-1-fluoro-6,7,8,9-tetrahydro-5H-5,8-epiminocyclohepta[c]pyridine-10-carboxamide] as the compound, how does the IC50 read?
**A.** The IC50 was 500 to 5000 nM.

**Q.** O=C(Nc1ccc(Cl)c(Cl)c1)N1[C@@H]2CC[C@H]1[C@H](F)c1ncncc12 [Compound 115, (5R,8S,9S)-N-(3,4-Dichlorophenyl)-9-fluoro-6,7,8,9-tetrahydro-5H-5,8-epiminocyclohepta[d]pyrimidine-10-carboxamide] was tested. Which IC50 did it give?
**A.** The IC50 was 500 to 5000 nM.

**Q.** For O=C(Nc1ccc(-n2cccn2)cc1)N1[C@H]2CC[C@@H]1c1ccnc(F)c1C2 [Compound 183, (5R,8S)-N-(4-(1H-Pyrazol-1-yl)phenyl)-1-fluoro-6,7,8,9-tetrahydro-5H-5,8-epiminocyclohepta[c]pyridine-10-carboxamide], which IC50 is on record?
**A.** Its IC50 is 500 to 5000 nM.
